Measurements from patent US20090281136A1, “PRASUGREL PHARMACEUTICAL FORMULATIONS” (priority 2008, published 2009).

Experiment: Drug-excipient compatibility study (impurity formation on storage at 40° C. and 75% relative humidity)
Type: physicochemical
Experimental: Prasugrel hydrochloride and mixtures with excipients in the weight ratios stated below are mixed well and sifted through an ASTM #40 mesh sieve. The mixture is placed into open glass vials, stored at 40° C. and 75% relative humidity for four weeks, and samples are analyzed at intervals to evaluate the extent of impurity formation. Values for impurities in the table below are calculated as percent by weight of the original prasugrel content.

## CC(=O)Oc1cc2c(s1)CCN(C(C(=O)C1CC1)c1ccccc1F)C2 (stereo not drawn) [Prasugrel, 5-[2-cyclopropyl-1-(2-fluorophenyl)-2-oxoethyl]-4,5,6,7-tetrahydrothieno[3,2-c]pyridin-2-yl acetate]
1 week at 40° C. and 75% relative humidity, open glass vials
  Total Impurities, 1 Week: 0.6547 percent by weight of the original prasugrel content
2 weeks at 40° C. and 75% relative humidity, open glass vials
  Total Impurities, 2 Weeks: 0.6982 percent by weight of the original prasugrel content
3 weeks at 40° C. and 75% relative humidity, open glass vials
  Total Impurities, 3 Weeks: 0.7488 percent by weight of the original prasugrel content
4 weeks at 40° C. and 75% relative humidity, open glass vials
  Total Impurities, 4 Weeks: 0.8998 percent by weight of the original prasugrel content
Initial, open glass vials
  Total Impurities, Initial: 0.6301 percent by weight of the original prasugrel content
Accelerated stability testing conditions
  Stability in the presence of the excipients studied: acceptable stability
